Source: patent US20150004134A1, “TREATMENT OF CANCER WITH HETEROCYCLIC INHIBITORS OF GLUTAMINASE” (Calithera Biosciences, Inc., priority 2012, published 2015)
Like-named read-outs stand apart in the source and are kept apart here.

Test system: P493-6 (myc "on") cells
Assay: Cell Proliferation Assay
Type: cell-based
Procedure, shortened: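 Read-out: either Cell Titer Glo or Guava Viacount flow analysis after 72 h compound treatment of myc-on P493-6 cells (10,000/well, RPMI with 10% FBS) at 37 °C. DMSO held at 0.5% final.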

[1] = P493-6, 72 h, read-out: Cell prolif P493 72 h IC50, P493 cells, 72 h
[2] = P493-6, 72 h, read-out: Cell prolif P493 72 h IC50, P493-6 cells, 72 h

## O=C(Nc1nnc(CCCCc2nnc(NC(=O)C3COc4ccccc43)s2)s1)C1COc2ccccc21 (centres unmarked) [Compound 135]
[1]
  IC50: 0.49 µM

## O=C(Cc1ccccc1)Nc1ccc(CCCCc2ccc(NC(=O)Cc3ccccc3)nn2)nn1 [Compound 1038]
[1]
  IC50: 1.5 µM

## NCc1cccc(CC(=O)Nc2nnc(CCCCc3ccc(NC(=O)Cc4ccccc4)nn3)s2)c1 [Compound 341]
[1]
  IC50: 0.039 µM

## O=C(Nc1nnc(CCCCc2nnc(NC(=O)C(O)Cc3ccccc3)s2)s1)C(O)Cc1ccccc1 (centres unmarked) [Compound 69]
[1]
  IC50: 0.33 µM

## O=C(CN1CCOCC1)Nc1nnc(CCSCCc2nnc(NC(=O)CN3CCOCC3)s2)s1 [Compound 12]
[1]
  IC50: 36 µM

## CC(C)(C)OC(=O)N1CCN(C(C(=O)Nc2nnc(CCCCc3nnc(NC(=O)C(c4ccccc4)N4CCN(C(=O)OC(C)(C)C)CC4)s3)s2)c2ccccc2)CC1 (centres unmarked) [Compound 63]
[1]
  IC50: 2.6 µM

## CC(C)(C)OC(=O)N[C@@H](C(=O)Nc1nnc(CCSCCc2nnc(NC(=O)[C@H](NC(=O)OC(C)(C)C)c3ccccc3)s2)s1)c1ccccc1 [Compound 46]
[1]
  IC50: 16 µM

## COC(=O)c1cccc(NC(=O)Nc2nnc(CCSCCc3nnc(NC(=O)Nc4cccc(C(=O)OC)c4)s3)s2)c1 [Compound 31]
[1]
  IC50: 4.3 µM

## O=C(Cc1ccccc1)Nc1nnc(CCSCCc2nnc(N(COC(=O)OCCCN3CCOCC3)C(=O)Cc3ccccc3)s2)s1 [Compound 27]
[1]
  IC50: 0.47 µM

## CC(C(=O)Nc1nnc(CCCCc2ccc(NC(=O)Cc3cccc(CNC(=O)OCCF)c3)nn2)s1)c1ccccc1 (centres unmarked) [Compound 591]
[2]
  IC50: 0.033 µM

## O=C(Cc1cccc(OCCN2CCOCC2)c1)Nc1nnc(CCSCCc2nnc(NC(=O)Cc3cccc(OCCN4CCOCC4)c3)s2)s1 [Compound 240]
[1]
  IC50: 1.3 µM

## O=C(Cc1ccccc1)Nc1ccc(CCCCc2nnc(NC(=O)Cc3cccc(OC(F)F)c3)s2)nn1 [Compound 664]
[2]
  IC50: 0.06 µM

## O=C(CC1CCCC1)Nc1nnc(CCSCCc2nnc(NC(=O)CC3CCCC3)s2)s1 [Compound 58]
[1]
  IC50: 3.7 µM

## C[C@@H](O)C(=O)Nc1nnc(CCCCc2nnc(NC(=O)Cc3ccccc3)s2)s1 [Compound 322]
[1]
  IC50: 3 µM

## CC(C)CC(=O)Nc1nnc(CCSCCc2nnc(NC(=O)CC(C)C)s2)s1 [Compound 4]
[1]
  IC50: > 50 µM

## O=C(Cc1ccccc1)Nc1ccc(CCCCc2nnc(NC(=O)Cc3cccc(Cl)c3F)s2)nn1 [Compound 545]
[2]
  IC50: 0.046 µM

## COCC(C(=O)Nc1nnc(CCSCCc2nnc(NC(=O)C(COC)c3ccccc3)s2)s1)c1ccccc1 (centres unmarked) [Compound 204]
[1]
  IC50: 2.4 µM

## CC1(C)OC(=O)[C@@H](CC(=O)Nc2nnc(CCCCc3nnc(NC(=O)C[C@H]4OC(C)(C)OC4=O)s3)s2)O1 [Compound 103]
[1]
  IC50: > 50 µM

## Cc1ccccc1C(C)C(=O)Nc1nnc(CCSCCc2nnc(NC(=O)C(C)c3ccccc3C)s2)s1 (centres unmarked) [Compound 262]
[1]
  IC50: 3.1 µM

## O=C(Nc1nnc(CCCCc2nnc(NC(=O)C3CCCC3)s2)s1)C1CCCC1 [Compound 53]
[1]
  IC50: 34 µM

## O=C(Nc1nnc(CCCCc2nnc(NC(=O)C(O)c3cccc(Br)c3)s2)s1)C(O)c1cccc(Br)c1 (centres unmarked) [Compound 288]
[1]
  IC50: 0.028 µM

## COc1ccccc1C(CO)C(=O)Nc1nnc(CCSCCc2nnc(NC(=O)C(CO)c3ccccc3OC)s2)s1 (centres unmarked) [Compound 245]
[1]
  IC50: 2.5 µM

## Nc1cccc(CC(=O)Nc2nnc(CCCCc3ccc(NC(=O)Cc4ccccc4)nn3)s2)c1 [Compound 409]
[2]
  IC50: 0.037 µM

## CC(C)(C)OC(=O)NCc1cccc(CC(=O)Nc2nnc(CCCCc3ccc(NC(=O)C(O)(CO)c4ccccc4)nn3)s2)c1 (centres unmarked) [Compound 507]
[2]
  IC50: 0.041 µM

## O=C(Cc1ccccc1)Nc1nnc(CCCCc2nnc(NC(=O)[C@H]3CCCC[C@@H]3C(=O)c3ccccc3)s2)s1 [Compound 290]
[1]
  IC50: 0.79 µM

## O=C(Cc1ccccc1)Nc1nnc(CCCCc2nnc(NC(=O)Cc3ccccc3)o2)o1 [Compound 305]
[1]
  IC50: 102 µM

## CC(C)(C)OC(=O)Nc1ccc(CC(=O)Nc2nnc(CCCCc3nnc(NC(=O)Cc4ccc(NC(=O)OC(C)(C)C)cc4)s3)s2)cc1 [Compound 192]
[1]
  IC50: 0.03 µM

## CC(C(=O)Nc1nnc(CCCCc2ccc(NC(=O)Cc3cccc(CNC(=O)CC(O)C(F)(F)F)c3)nn2)s1)c1ccccc1 (centres unmarked) [Compound 606]
[2]
  IC50: 0.045 µM

## CC(C)(C)OC(=O)Nc1cccc(CC(=O)Nc2nnc(CCCCc3nnc(NC(=O)Cc4cccc(NC(=O)OC(C)(C)C)c4)s3)s2)c1 [Compound 327]
[1]
  IC50: 0.15 µM

## N[C@H](C(=O)Nc1nnc(CCSCCc2nnc(NC(=O)[C@@H](N)c3ccccc3)s2)s1)c1ccccc1 [Compound 175]
[1]
  IC50: 23 µM

## COc1cccc(CC(=O)Nc2nnc(CCCCc3nnc(NC(=O)Cc4cccc(OC)c4OC)s3)s2)c1OC [Compound 260]
[1]
  IC50: 0.084 µM

## O=C(Nc1nnc(CCCc2nnc(NC(=O)C(O)Cc3ccccc3)s2)s1)C(O)Cc1ccccc1 (centres unmarked) [Compound 170]
[1]
  IC50: 9.3 µM

## O=C(Cc1ccccc1)Nc1ccc(CCCCc2nnc(NC(=O)C(O)c3ccccc3)s2)nn1 (centres unmarked) [Compound 315]
[1]
  IC50: 0.035 µM

## CC(C(=O)Nc1ccc(CCCCc2nnc(NC(=O)Cc3ccccc3)s2)nn1)c1ccc(F)c(CN(C)C(=O)OC(C)(C)C)c1 (centres unmarked) [Compound 599]
[2]
  IC50: 0.039 µM

## CC(CCc1nnc(NC(=O)Cc2ccccc2)s1)CCc1nnc(NC(=O)Cc2ccccc2)s1 [Compound 9]
[1]
  IC50: > 50 µM

## O=C(Cc1ccccc1)Nc1ccc(CCCCc2nnc(NC(=O)NC3CCCC3)s2)nn1 [Compound 403]
[2]
  IC50: 0.12 µM

## O=C(Cc1ccccc1)Nc1nnc(CCCCc2ccc(NC(=O)NCc3ccccc3)nn2)s1 [Compound 405]
[2]
  IC50: 0.67 µM

## O=C(Cc1ccccc1F)Nc1nnc(CCSCCc2nnc(NC(=O)Cc3ccccc3F)s2)s1 [Compound 294]
[1]
  IC50: 1.1 µM

## CN(C(=O)Cc1ccccc1)c1nnc(CCSCCc2nnc(N(C)C(=O)Cc3ccccc3)s2)s1 [Compound 6]
[1]
  IC50: 2.7 µM

## O=C(Cc1c(F)cccc1F)Nc1nnc(CCSCCc2nnc(NC(=O)Cc3c(F)cccc3F)s2)s1 [Compound 298]
[1]
  IC50: 5.1 µM

## CC(C)(C)OC(=O)Nc1cccc(CC(=O)Nc2nnc(CCCCc3ccc(NC(=O)Cc4ccccc4)nn3)s2)c1 [Compound 399]
[2]
  IC50: 0.026 µM

## Cc1cc(C)n(CC(=O)Nc2nnc(CCSCCc3nnc(NC(=O)Cn4nc(C)cc4C)s3)s2)n1 [Compound 97]
[1]
  IC50: 17 µM

## CC(=O)Nc1ccc(CCCCc2nnc(NC(=O)Cc3cccc(CNC(=O)CC(C)C)c3)s2)nn1 [Compound 461]
[2]
  IC50: 0.062 µM

## COc1ccccc1CC(=O)Nc1nnc(CCSCCc2nnc(NC(=O)Cc3ccccc3OC)s2)s1 [Compound 219]
[1]
  IC50: 0.57 µM

## O=C(N[C@@H](CO)C(=O)Nc1nnc(CCSCCc2nnc(NC(=O)[C@H](CO)NC(=O)OCc3ccccc3)s2)s1)OCc1ccccc1 [Compound 138]
[1]
  IC50: 2.7 µM

## O=C(Cc1ccccc1)Nc1nnc(CCCCc2nnc(NC(=O)Cc3ccc(F)c(O)c3F)s2)s1 [Compound 346]
[1]
  IC50: 0.087 µM

## CC(C)NC(=O)OC(C)c1cccc(CC(=O)Nc2nnc(CCCCc3ccc(NC(=O)Cc4ccccc4)nn3)s2)c1 (centres unmarked) [Compound 598]
[2]
  IC50: 0.004 µM

## COCCOc1cccc(CC(=O)Nc2nnc(CCCCc3ccc(NC(=O)Cc4ccccc4)nn3)s2)c1 [Compound 428]
[2]
  IC50: 0.019 µM

## O=C(Cc1cccc2[nH]ccc12)Nc1nnc(CCCCc2nnc(NC(=O)Cc3cccc4[nH]ccc34)s2)s1 [Compound 323]
[1]
  IC50: 0.2 µM

## CC(=O)NCCc1cccc(CC(=O)Nc2nnc(CCCCc3ccc(NC(=O)Cc4ccccc4)nn3)s2)c1 [Compound 454]
[2]
  IC50: 0.13 µM

## O=C(Cc1ccccc1)Nc1nnc(CCCCc2nnc(NC(=O)Cc3cccnc3)s2)s1 [Compound 309]
[1]
  IC50: 0.18 µM

## CS(=O)(=O)CCCOc1cccc(CC(=O)Nc2ccc(CCCCc3nnc(NC(=O)Cc4ccccc4)s3)nn2)c1 [Compound 623]
[2]
  IC50: 0.026 µM

## CCC(C)C(=O)Nc1nnc(CCSCCc2nnc(NC(=O)C(C)CC)s2)s1 (centres unmarked) [Compound 105]
[1]
  IC50: 119 µM

## O=C(Cc1ccccc1)Nc1ccc(CCCCc2nnc(NC(=O)Cc3cccc(CN4CCCCC4=O)c3)s2)nn1 [Compound 476]
[2]
  IC50: 0.012 µM

## CC(CO)(CO)C(=O)Nc1nnc(CCCCc2nnc(NC(=O)Cc3cccc(F)c3)s2)s1 [Compound 152, N,N′-(5-(4-(5-(2-(3-fluorophenyl)acetamido)-1,3,4-thiadiazol-2-yl)butyl)-1,3,4-thiadiazol-2-yl)-3-hydroxy-2-(hydroxymethyl)-2-methylpropanamide]
[1]
  IC50: 1.1 µM

## O=C(C[C@@H](O)c1ccccc1)Nc1nnc(CCSCCc2nnc(NC(=O)C[C@@H](O)c3ccccc3)s2)s1 [Compound 126]
[1]
  IC50: 12 µM

## O=C(CCN1CCOCC1)OCC(C(=O)Nc1nnc(CCCCc2nnc(NC(=O)C(CO)c3ccccc3)s2)s1)c1ccccc1 (centres unmarked) [Compound 228, 3-((5-{4-[5-(3-hydroxy-2-phenylpropanamido)-1,3,4-thiadiazol-2-yl]butyl}-1,3,4-thiadiazol-2-yl)amino)-3-oxo-2-phenylpropyl 3-morpholinopropanoate]
[1]
  IC50: 0.13 µM

## O=C(Cc1ccccc1)Nc1ccc(CCCCc2nnc(NC(=O)Cc3cccc(CC(=O)N4CCC(F)(F)CC4)c3)s2)nn1 [Compound 474]
[2]
  IC50: 0.004 µM

## O=C(Nc1nnc(CCSCCc2nnc(NC(=O)C3CCCC3)s2)s1)C1CCCC1 [Compound 40]
[1]
  IC50: 0.56 µM

## CCC(C)C(=O)Nc1nnc(CCCCc2nnc(NC(=O)C(C)CC)s2)s1 (centres unmarked) [Compound 107]
[1]
  IC50: 1.2 µM

## O=C(Cc1ccccc1)Nc1ccc(CCCCc2nnc(NC(=O)Cc3cccc(CN4CCCC4=O)c3)s2)nn1 [Compound 479]
[2]
  IC50: 0.03 µM

## Cc1ccccc1CC(=O)Nc1nnc(CCCCc2ccc(NC(=O)Cc3ccccc3Cl)nn2)s1 [Compound 535]
[2]
  IC50: 0.09 µM

## Nc1ccc(CCCCc2nnc(NC(=O)Cc3cccc(OC(F)(F)F)c3)s2)nn1 [Compound 584]
[2]
  IC50: 1.4 µM

## CC(C)NC(=O)Nc1nnc(CCCCc2nnc(NC(=O)Cc3ccccc3)s2)s1 [Compound 438]
[2]
  IC50: 0.88 µM

## Nc1nnc(CCCCc2ccc(NC(=O)Cc3cccc(OC(F)(F)F)c3)nn2)s1 [Compound 657, N-(6-(4-(5-amino-1,3,4-thiadiazol-2-yl)butyl)pyridazin-3-yl)-2-(3-(trifluoromethoxy)phenyl)acetamide]
read-out: Cell prolif P493 72 h IC50, P493-6 cells, 72 h
  IC50: 1.5 µM
